# In the OligoGym collection:
# HELM strings list units from the 5' end as sugar, base in round brackets, then linkage (d deoxyribose, r ribose, m 2'-O-methyl, p phosphodiester). Strings are as the collection lists them; they lack the last nucleoside at the 3' end of the tested compound. [moe] = 2'-O-(2-methoxyethyl) (MOE); [sp] = phosphorothioate linkage; [m5C] = 5-methylcytosine
# Molecular target: GFAP
# Assay: mouse, dose not given
# Conditions: ASO
row,Substance,3 h FOB score [score 0-7]
1,RNA1{[moe](A)[sp].[moe](T)p.[moe](T)p.[moe](T)p.[moe](G)p.[moe](T)p.d([m5C])[sp].d(T)[sp].d(T)[sp].d(T)[sp].d(A)[sp].d(T)[sp].d(T)[sp].d(T)[sp].d(T)[sp].d(T)[sp].[moe]([m5C])p.[moe]([m5C])[sp].[moe](T)}$$$$ (last 3' nucleoside missing),0
2,RNA1{[moe](A)[sp].[moe](G)p.[moe](T)p.[moe]([m5C])p.[moe](A)[sp].d(G)[sp].d([m5C])[sp].d([m5C])[sp].d(T)[sp].d(G)[sp].d(G)[sp].d(T)[sp].d(T)[sp].d(A)[sp].d(G)[sp].[moe]([m5C])p.[moe]([m5C])p.[moe](T)[sp].[moe](T)}$$$$ (last 3' nucleoside missing),6
3,RNA1{[moe]([m5C])[sp].[moe](A)p.[moe](A)p.[moe](G)p.[moe]([m5C])[sp].d(T)[sp].d([m5C])[sp].d(T)[sp].d(G)[sp].d([m5C])[sp].d([m5C])[sp].d(A)[sp].d(G)[sp].d(T)[sp].d(T)[sp].[moe](T)p.[moe](A)p.[moe](A)[sp].[moe](T)}$$$$ (last 3' nucleoside missing),5
4,RNA1{[moe](G)[sp].[moe](T)p.[moe](G)p.[moe](G)p.[moe](A)[sp].d(G)[sp].d(G)[sp].d(G)[sp].d([m5C])[sp].d(G)[sp].d(A)[sp].d(T)[sp].d(G)[sp].d(T)[sp].d(A)[sp].[moe](G)p.[moe](T)p.[moe](A)[sp].[moe](G)}$$$$ (last 3' nucleoside missing),7
5,RNA1{[moe](T)[sp].[moe](G)p.[moe](T)p.[moe](G)p.[moe](T)p.d(A)[sp].d(T)[sp].d(T)[sp].d(A)[sp].d(G)[sp].d(G)[sp].d(A)[sp].d(T)[sp].d([m5C])[sp].d([m5C])[sp].[moe]([m5C])p.[moe](A)p.[moe](T)[sp].[moe]([m5C])}$$$$ (last 3' nucleoside missing),3
6,RNA1{[moe](T)[sp].[moe](G)p.[moe](G)p.[moe](T)p.[moe]([m5C])p.d([m5C])[sp].d(T)[sp].d(A)[sp].d(A)[sp].d(A)[sp].d(T)[sp].d(A)[sp].d(T)[sp].d(T)[sp].d([m5C])[sp].[moe](T)p.[moe](A)p.[moe](G)[sp].[moe](T)}$$$$ (last 3' nucleoside missing),1
7,RNA1{[moe](T)[sp].[moe](G)p.[moe](T)p.[moe](G)p.[moe](T)p.[moe](A)p.d(T)[sp].d(T)[sp].d(A)[sp].d(G)[sp].d(G)[sp].d(A)[sp].d(T)[sp].d([m5C])[sp].d([m5C])[sp].d([m5C])[sp].[moe](A)p.[moe](T)[sp].[moe]([m5C])}$$$$ (last 3' nucleoside missing),3
8,RNA1{[moe](T)[sp].[moe]([m5C])p.[moe]([m5C])p.[moe](T)p.[moe]([m5C])[sp].d(A)[sp].d(A)[sp].d(G)[sp].d(A)[sp].d(A)[sp].d([m5C])[sp].d([m5C])[sp].d(G)[sp].d(G)[sp].d(A)[sp].[moe](T)p.[moe]([m5C])p.[moe](T)[sp].[moe]([m5C])}$$$$ (last 3' nucleoside missing),1
9,RNA1{[moe](T)[sp].[moe](G)p.[moe](T)p.[moe]([m5C])p.[moe](T)p.[moe](T)p.d(T)[sp].d(A)[sp].d(T)[sp].d(T)[sp].d(T)[sp].d(T)[sp].d(T)[sp].d([m5C])[sp].d([m5C])[sp].d(T)[sp].[moe]([m5C])p.[moe](A)[sp].[moe](G)}$$$$ (last 3' nucleoside missing),1
10,RNA1{[moe](A)[sp].[moe](T)p.[moe](T)p.[moe](T)p.d(A)[sp].d(T)[sp].d([m5C])[sp].d(T)[sp].d(G)[sp].d(T)[sp].d(G)[sp].d([m5C])[sp].d(T)[sp].d(T)[sp].[moe](T)p.[moe](A)p.[moe](G)p.[moe](T)[sp].[moe](G)}$$$$ (last 3' nucleoside missing),2
11,RNA1{[moe](T)[sp].[moe](T)p.[moe](T)p.[moe](T)p.[moe](G)[sp].d(T)[sp].d(G)[sp].d(T)[sp].d(G)[sp].d(T)[sp].d(G)[sp].d(A)[sp].d(G)[sp].d(T)[sp].d(A)[sp].[moe](A)p.[moe](G)p.[moe](A)[sp].[moe](A)}$$$$ (last 3' nucleoside missing),7
12,RNA1{[moe](G)[sp].[moe]([m5C])p.[moe]([m5C])p.[moe](A)p.[moe](A)[sp].d(A)[sp].d(T)[sp].d([m5C])[sp].d([m5C])[sp].d([m5C])[sp].d([m5C])[sp].d(T)[sp].d([m5C])[sp].d(T)[sp].d(T)[sp].[moe]([m5C])p.[moe]([m5C])p.[moe]([m5C])[sp].[moe](A)}$$$$ (last 3' nucleoside missing),0
13,RNA1{[moe](T)[sp].[moe](T)p.[moe](G)p.[moe](G)p.[moe]([m5C])p.d(A)[sp].d(G)[sp].d(T)[sp].d(A)[sp].d(T)[sp].d(T)[sp].d(A)[sp].d([m5C])[sp].d([m5C])[sp].d(T)[sp].[moe]([m5C])p.[moe](T)p.[moe](A)[sp].[moe]([m5C])}$$$$ (last 3' nucleoside missing),0
14,RNA1{[moe]([m5C])[sp].[moe](G)p.[moe](T)p.[moe](G)p.[moe](T)[sp].d([m5C])[sp].d(A)[sp].d(G)[sp].d([m5C])[sp].d([m5C])[sp].d([m5C])[sp].d(T)[sp].d(G)[sp].d(A)[sp].d(G)[sp].[moe]([m5C])p.[moe](A)p.[moe]([m5C])[sp].[moe]([m5C])}$$$$ (last 3' nucleoside missing),2
15,RNA1{[moe]([m5C])[sp].[moe]([m5C])p.[moe](T)p.[moe](G)p.[moe](T)p.[moe](G)p.d(A)[sp].d([m5C])[sp].d(T)[sp].d(A)[sp].d(T)[sp].d([m5C])[sp].d(T)[sp].d(A)[sp].d(G)[sp].d(G)[sp].[moe](A)p.[moe](T)[sp].[moe](T)}$$$$ (last 3' nucleoside missing),1
16,RNA1{[moe](T)[sp].[moe](T)p.[moe](G)p.[moe](A)p.[moe](G)[sp].d(A)[sp].d(T)[sp].d(A)[sp].d(T)[sp].d([m5C])[sp].d(T)[sp].d(T)[sp].d(G)[sp].d(T)[sp].d(G)[sp].[moe](A)p.[moe]([m5C])p.[moe]([m5C])[sp].[moe](T)}$$$$ (last 3' nucleoside missing),4
17,RNA1{[moe]([m5C])[sp].[moe](A)p.[moe](G)p.[moe](T)p.d(A)[sp].d(T)[sp].d(T)[sp].d(A)[sp].d([m5C])[sp].d([m5C])[sp].d(T)[sp].d([m5C])[sp].d(T)[sp].d(A)[sp].[moe]([m5C])p.[moe](T)p.[moe](A)p.[moe](G)[sp].[moe](T)}$$$$ (last 3' nucleoside missing),1
18,RNA1{[moe](G)[sp].[moe](A)p.[moe](G)p.[moe](T)p.[moe]([m5C])[sp].d(T)[sp].d([m5C])[sp].d(A)[sp].d(G)[sp].d(T)[sp].d(T)[sp].d(T)[sp].d(T)[sp].d([m5C])[sp].d([m5C])[sp].[moe](T)p.[moe]([m5C])p.[moe]([m5C])[sp].[moe](A)}$$$$ (last 3' nucleoside missing),4
19,RNA1{[moe](G)[sp].[moe](T)p.[moe](G)p.[moe](A)p.[moe](T)[sp].d(T)[sp].d(T)[sp].d(T)[sp].d([m5C])[sp].d([m5C])[sp].d([m5C])[sp].d([m5C])[sp].d(G)[sp].d(T)[sp].d([m5C])[sp].[moe](T)p.[moe](T)p.[moe](T)[sp].[moe](G)}$$$$ (last 3' nucleoside missing),6
20,RNA1{[moe](A)[sp].[moe](A)p.[moe](A)p.[moe](G)p.[moe](G)p.d([m5C])[sp].d(A)[sp].d([m5C])[sp].d(A)[sp].d(G)[sp].d(T)[sp].d(T)[sp].d([m5C])[sp].d([m5C])[sp].d([m5C])[sp].[moe](A)p.[moe](G)p.[moe](A)[sp].[moe](T)}$$$$ (last 3' nucleoside missing),2
21,RNA1{[moe](T)[sp].[moe](G)p.[moe](T)p.[moe](A)p.d(T)[sp].d(T)[sp].d(A)[sp].d(G)[sp].d(G)[sp].d(A)[sp].d(T)[sp].d([m5C])[sp].d([m5C])[sp].d([m5C])[sp].[moe](A)p.[moe](T)p.[moe]([m5C])p.[moe](T)[sp].[moe](A)}$$$$ (last 3' nucleoside missing),3
22,RNA1{[moe]([m5C])[sp].[moe](T)p.[moe](T)p.[moe](T)p.[moe]([m5C])[sp].d(T)[sp].d([m5C])[sp].d(T)[sp].d([m5C])[sp].d([m5C])[sp].d(T)[sp].d(G)[sp].d(T)[sp].d(T)[sp].d(T)[sp].[moe]([m5C])p.[moe](A)p.[moe](G)[sp].[moe]([m5C])}$$$$ (last 3' nucleoside missing),3
23,RNA1{[moe](T)[sp].[moe]([m5C])p.[moe](A)p.[moe](G)p.[moe](T)p.d(T)[sp].d(T)[sp].d(T)[sp].d([m5C])[sp].d([m5C])[sp].d(T)[sp].d([m5C])[sp].d([m5C])[sp].d(A)[sp].d(G)[sp].[moe]([m5C])p.[moe](A)p.[moe](G)[sp].[moe]([m5C])}$$$$ (last 3' nucleoside missing),2
24,RNA1{[moe](A)[sp].[moe]([m5C])p.[moe](A)p.[moe](T)p.[moe](T)p.[moe]([m5C])p.d(A)[sp].d([m5C])[sp].d(T)[sp].d(A)[sp].d(A)[sp].d(T)[sp].d(A)[sp].d(T)[sp].d(T)[sp].d(T)[sp].[moe](A)p.[moe](A)[sp].[moe]([m5C])}$$$$ (last 3' nucleoside missing),0
25,RNA1{[moe](T)[sp].[moe](T)p.[moe](G)p.[moe](T)p.[moe]([m5C])p.[moe](T)p.d(T)[sp].d(T)[sp].d(A)[sp].d(T)[sp].d(T)[sp].d(T)[sp].d(T)[sp].d(T)[sp].d([m5C])[sp].d([m5C])[sp].[moe](T)p.[moe]([m5C])[sp].[moe](A)}$$$$ (last 3' nucleoside missing),4
26,RNA1{[moe]([m5C])[sp].[moe](A)p.[moe](G)p.[moe](T)p.[moe](A)p.[moe](T)p.d(T)[sp].d(A)[sp].d([m5C])[sp].d([m5C])[sp].d(T)[sp].d([m5C])[sp].d(T)[sp].d(A)[sp].d([m5C])[sp].d(T)[sp].[moe](A)p.[moe](G)[sp].[moe](T)}$$$$ (last 3' nucleoside missing),0
